We go through 8 molecules from ChEMBL document CHEMBL3044874, “Synthesis and characterization of some heterocyclic schiff bases: potential anticonvulsant agents” (Med Chem Res, 2011).

Data set [1] has as its system Mus musculus. Put plainly: Anticonvulsant activity in ip dosed Mus musculus Swiss albino (mouse) assessed as protection against maximal electroshock-induced seizure at 4 hr. It counts as functional. The settings on record: read-out: MED.
Data set [2] is described as follows: Protection index, ratio TD50 for neurotoxicity to ED50 for protection against maximal electroshock-induced seizure in Mus musculus Swiss albino (mouse). The settings on record: in vivo, read-out: Ratio TD50/ED50. The data set is classed as toxicity, organism-based.
The subject of data set [3] is Mus musculus. Put plainly: Neurotoxicity against Mus musculus Swiss albino (mouse) at 300 mg/kg, ip measured at 0.5 hr by rota rod test. It counts as toxicity, organism-based. Set-up: dose 300 mg/kg, route intraperitoneal. To be noted: in vivo. Background: The rotarod test checks motor coordination on a turning rod.
Data set [4] concerns Mus musculus. The experiment in a line: Anticonvulsant activity in ip dosed Mus musculus Swiss albino (mouse) assessed as protection against maximal electroshock-induced seizure at 0.5 hr. It counts as functional. The settings on record: read-out: MED.
The test system of data set [5] is Rattus norvegicus. Put plainly: Anticonvulsant activity in Rattus norvegicus Wistar (rat) assessed as protection against maximal electroshock-induced seizure at 30 mg/kg, po measured at 1 hr. It counts as functional, organism-based. Set-up: dose 30 mg/kg. A general note: Protection in the maximal electroshock model is a classic sign of anticonvulsant action.
Data set [6] can be described thus: Neurotoxicity against ip dosed Mus musculus Swiss albino (mouse) by rota rod test. It counts as toxicity, organism-based. The settings on record: in vivo.
The subject of data set [7] is Mus musculus. The experiment in a line: Anticonvulsant activity in Mus musculus Swiss albino (mouse) assessed as protection against strychnine-induced seizure at 300 mg/kg, ip measured at 0.5 hr. The data set is classed as functional, organism-based. Set-up: dose 300 mg/kg.
Data set [8] concerns Mus musculus. Put plainly: Anticonvulsant activity in Mus musculus Swiss albino (mouse) assessed as protection against pentylenetetrazole-induced seizure at 300 mg/kg, ip measured at 4 hr. It counts as functional, organism-based. Set-up: dose 300 mg/kg.
The subject of data set [9] is Mus musculus. The experiment in a line: Anticonvulsant activity in Mus musculus Swiss albino (mouse) assessed as protection against pentylenetetrazole-induced seizure at 300 mg/kg, ip. The data set is classed as functional, organism-based. Set-up: dose 300 mg/kg.
Data set [10] concerns Mus musculus. Put plainly: Anticonvulsant activity in Mus musculus Swiss albino (mouse) assessed as protection against pentylenetetrazole-induced seizure at 300 mg/kg, ip measured at 0.5 hr. Set-up: dose 300 mg/kg. The data set is classed as functional, organism-based.
The test system of data set [11] is Rattus norvegicus. Put plainly: Anticonvulsant activity in Rattus norvegicus Wistar (rat) assessed as protection against maximal electroshock-induced seizure at 30 mg/kg, po measured at 4 hr. It counts as functional, organism-based. Set-up: dose 30 mg/kg.
Data set [12] concerns Mus musculus. The experiment in a line: Anticonvulsant activity in Mus musculus Swiss albino (mouse) assessed as protection against strychnine-induced seizure at 300 mg/kg, ip measured at 4 hr. The data set is classed as functional, organism-based. Set-up: dose 300 mg/kg.
For data set [13], the system named is Mus musculus. The experiment in a line: Anticonvulsant activity in Mus musculus Swiss albino (mouse) assessed as protection against strychnine-induced seizure at 300 mg/kg, ip. Set-up: dose 300 mg/kg. It counts as functional, organism-based.
The test system of data set [14] is Mus musculus. Put plainly: Neurotoxicity against Mus musculus Swiss albino (mouse) at 300 mg/kg, ip measured at 4 hr by rota rod test. Set-up: dose 300 mg/kg, route intraperitoneal. The settings on record: in vivo. The data set is classed as toxicity, organism-based.
Data set [15] has as its system Rattus norvegicus. Put plainly: Anticonvulsant activity in Rattus norvegicus Wistar (rat) assessed as protection against maximal electroshock-induced seizure at 30 mg/kg, po measured at 0.25 hr. The data set is classed as functional, organism-based. Set-up: dose 30 mg/kg.
The test system of data set [16] is Rattus norvegicus. The experiment in a line: Anticonvulsant activity in Rattus norvegicus Wistar (rat) assessed as protection against maximal electroshock-induced seizure at 30 mg/kg, po measured at 0.5 hr. Set-up: dose 30 mg/kg. It counts as functional, organism-based.
Data set [17] relates to Rattus norvegicus. Put plainly: Anticonvulsant activity in Rattus norvegicus Wistar (rat) assessed as protection against maximal electroshock-induced seizure at 30 mg/kg, po measured at 2 hr. It counts as functional, organism-based. Set-up: dose 30 mg/kg.
Data set [18] has as its system Mus musculus. Put plainly: Anticonvulsant activity in ip dosed Mus musculus Swiss albino (mouse) assessed as protection against maximal electroshock-induced seizure. The data set is classed as functional.
The subject of data set [19] is Mus musculus. Put plainly: Anticonvulsant activity in ip dosed Mus musculus Swiss albino (mouse) assessed as protection against pentylenetetrazole-induced seizure at 0.5 hr. It counts as functional. To be noted: read-out: MED.
In data set [20] the test system is Mus musculus. Put plainly: Anticonvulsant activity in ip dosed Mus musculus Swiss albino (mouse) assessed as protection against strychnine-induced seizure at 4 hr. It counts as functional. The settings on record: read-out: MED.
For data set [21], the system named is Mus musculus. The experiment in a line: Anticonvulsant activity in ip dosed Mus musculus Swiss albino (mouse) assessed as protection against strychnine-induced seizure. It counts as functional.
In data set [22] the test system is Mus musculus. Put plainly: Anticonvulsant activity in ip dosed Mus musculus Swiss albino (mouse) assessed as protection against strychnine-induced seizure at 0.5 hr. The data set is classed as functional. The settings on record: read-out: MED.
In data set [23] the test system is Mus musculus. The experiment in a line: Anticonvulsant activity in ip dosed Mus musculus Swiss albino (mouse) assessed as protection against pentylenetetrazole-induced seizure at 4 hr. It counts as functional. To be noted: read-out: MED.
Data set [24] concerns Mus musculus. The experiment in a line: Anticonvulsant activity in Mus musculus Swiss albino (mouse) assessed as protection against maximal electroshock-induced seizure at 300 mg/kg, ip measured at 4 hr. Set-up: dose 300 mg/kg. It counts as functional, organism-based.
Data set [25] deals with Mus musculus. Put plainly: Anticonvulsant activity in ip dosed Mus musculus Swiss albino (mouse) assessed as protection against pentylenetetrazole-induced seizure. The data set is classed as functional.
For data set [26], the system named is Mus musculus. Put plainly: Anticonvulsant activity in Mus musculus Swiss albino (mouse) assessed as protection against maximal electroshock-induced seizure at 300 mg/kg, ip. Set-up: dose 300 mg/kg. The data set is classed as functional, organism-based.
Data set [27] has as its system Mus musculus. The experiment in a line: Neurotoxicity against ip dosed Mus musculus Swiss albino (mouse) at 0.5 hr by rota rod test. It counts as toxicity, organism-based. The settings on record: in vivo.
Data set [28] deals with Mus musculus. Put plainly: Neurotoxicity against ip dosed Mus musculus Swiss albino (mouse) at 4 hr by rota rod test. The settings on record: in vivo. The data set is classed as toxicity, organism-based.
In data set [29] the test system is Mus musculus. Put plainly: Anticonvulsant activity in Mus musculus Swiss albino (mouse) assessed as protection against maximal electroshock-induced seizure at 300 mg/kg, ip measured at 0.5 hr. The data set is classed as functional, organism-based. Set-up: dose 300 mg/kg.

Calls of active or inactive are those of the source. No cut-off for these calls is given here.

Usually TD50 stands for the dose at which the toxic effect under study appears in half of the subjects. High values mean harm only at a large dose, low ones harm at a small dose. The term ED50 denotes the midpoint of the dose-response relation. For the molecule `c1ccc(C(=NCc2cccnc2)c2ccccc2)cc1`, the minimal effective dose in data set [1] and in data set [4] was 30 mg/kg throughout. Besides, the selectivity ratio in data set [2] is above 10. Besides, the Activity entry in data set [3] and in data set [14] was “Non-toxic” in each case. The outcome in data set [5], in data set [11], in data set [15] and in data set [16] was Active. For the same molecule, the TD50 in [6] is above 500 mg/kg. The outcome in [7], in data set [8], in data set [9], in [10], in [12] and in [13] was inactive. For the same molecule, in data set [17], the outcome was inactive. Besides, the ED50 in data set [18] was found to be 9.13 mg/kg.

For `O=[N+]([O-])c1ccc(/C=N/Cc2cccnc2)cc1`, the minimal effective dose was 100 mg/kg in data set [1]; 100 mg/kg in [19]; 100 mg/kg in data set [4]; 100 mg/kg in [20]; 30 mg/kg in data set [22]; 300 mg/kg in [23]. The selectivity ratio in data set [2] was above 10. In addition, the Activity result in data set [3] and in data set [14] was “Non-toxic” in each case. Besides, the outcome in data set [5], in data set [9], in data set [11], in data set [15], in data set [16] and in [17] was inactive. The results for the ED50 in data set [21] and in data set [18] were 22.2 mg/kg and 61.4 mg/kg, respectively. Also, the TD50 in data set [6] is above 500 mg/kg.

For the molecule `COc1cc(/C=N/Cc2cccnc2)cc(OC)c1OC`, the minimal effective dose in [1] came to 100 mg/kg; in data set [4], 100 mg/kg; in data set [20] it was 30 mg/kg; in data set [22], 100 mg/kg. Also, the selectivity ratio in data set [2] was above 10. Moreover, the Activity entry in [3] and in data set [14] was “Non-toxic” in each case. The result in data set [5], in [8], in [9], in data set [10], in data set [15] and in data set [16] was inactive. For the same molecule, the values for the ED50 in data set [21] and in [18] were 50.3 mg/kg and 71.7 mg/kg, respectively. The TD50 in data set [6] is above 500 mg/kg. Besides, the outcome in data set [11] and in data set [17] was Active.

Regarding `COc1ccc(/C=N/Cc2cccnc2)cc1OC`, the selectivity ratio in [2] was above 10. In addition, the values for the minimal effective dose in [19], in [4] and in data set [23] were 30 mg/kg, 300 mg/kg and 30 mg/kg, respectively. Also, the Activity entry in data set [3] and in data set [14] was “Non-toxic” in each case. Also, the result in [24], in data set [7], in data set [12], in data set [13] and in data set [26] was inactive. For the same molecule, the TD50 in data set [6] is above 500 mg/kg. For the same molecule, the 50% effective dose (ED50) in [25] is 11.7 mg/kg.

Regarding `C(=N\Cc1cccnc1)/c1c[nH]c2ccccc12`, the selectivity ratio in [2] was above 10. For the same molecule, the minimal effective dose in data set [19] came out at 30 mg/kg; in [4] it was 300 mg/kg; in [20], 100 mg/kg; in data set [22] it was 300 mg/kg; in data set [23], 30 mg/kg. The result in [24], in data set [13] and in data set [26] was inactive. In [6], this molecule returned a TD50 above 500 mg/kg. In addition, the MTC in [27] and in data set [28] was 100 mg/kg throughout. Moreover, the ED50 in data set [25] was 6.47 mg/kg.

In the case of `CC12CCC(C/C1=N/Cc1cccnc1)C2(C)C` (centres undefined), the selectivity ratio in data set [2] is 5.45. Also, the minimal effective dose in data set [19] amounted to 30 mg/kg; in data set [23], 100 mg/kg. The outcome in [24], in data set [29], in data set [7], in data set [12], in data set [13] and in data set [26] was inactive. In [6], this molecule had a TD50 of 176 mg/kg. In addition, the MTC in [27] worked out at 300 mg/kg. In data set [25], the ED50 was determined as 32.2 mg/kg. Also, in data set [14], the Activity result was “Non-toxic”.

Take `c1cncc(CN=C2CCCCC2)c1`: in data set [2], the selectivity ratio was above 10. The minimal effective dose in [19] and in data set [23] was 30 mg/kg in each case. For the same molecule, the Activity entry in data set [3] and in data set [14] was “Non-toxic” throughout. For the same molecule, the outcome in [24], in [29], in data set [7], in data set [12], in [13] and in [26] was inactive. The molecule further registered a TD50 in data set [6] above 500 mg/kg. The ED50 in [25] turned out to be 14.2 mg/kg.

As for `C/C(=N\Cc1cccnc1)c1ccccc1`, the minimal effective dose in [1] amounted to 30 mg/kg; in data set [19] it was 30 mg/kg; in data set [4], 100 mg/kg; in [23] it was 30 mg/kg. In addition, in data set [2], the selectivity ratio is above 10. The Activity result in [3] and in data set [14] was “Non-toxic” each time. Besides, the result in [5], in data set [11] and in [17] was Active. Moreover, the TD50 in data set [6] was above 500 mg/kg. The result in data set [7], in data set [12], in data set [13], in [15] and in data set [16] was inactive. The ED50 came to 23.2 mg/kg in [25] and 55.7 mg/kg in [18].
